Results as given in patent US6936585B2, “Corticotropin releasing factor 2 receptor agonists” (priority 2002, dated 2005).
Ends that are not written are not given here. Peptide text beside a SMILES is read from it.

Tests used:
CRF2R = molecular target: T1, CRF2R (Homo sapiens, UniProt Q13324); experiment: CRF2R agonist activation (EC50 / Emax), called comparative CRF binding; type: cell-based; settings: for Emax: read-out: CRF2R Emax
T1 sequence (Q13324 1-411): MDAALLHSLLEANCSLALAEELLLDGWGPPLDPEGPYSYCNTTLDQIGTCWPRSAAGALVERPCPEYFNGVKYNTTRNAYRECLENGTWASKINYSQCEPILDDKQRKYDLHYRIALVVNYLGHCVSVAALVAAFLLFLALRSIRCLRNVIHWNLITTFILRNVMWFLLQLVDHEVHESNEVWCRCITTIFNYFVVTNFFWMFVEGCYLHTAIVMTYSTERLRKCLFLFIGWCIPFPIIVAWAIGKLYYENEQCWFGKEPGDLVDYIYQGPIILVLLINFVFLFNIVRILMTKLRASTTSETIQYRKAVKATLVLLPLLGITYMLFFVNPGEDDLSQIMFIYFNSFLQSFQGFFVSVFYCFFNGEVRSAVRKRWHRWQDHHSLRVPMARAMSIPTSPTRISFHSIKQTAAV
How it was run: (§1)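 CRFR-expressing cells + peptide vs vehicle; read-out cAMP (lysate assay) or CRE-linked reporter expression (luciferase, CAT, fluorescent protein, alkaline phosphatase, etc.). Signal compared against vehicle-treated cells.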

CRF1R = molecular target: T2, CRF1R (Homo sapiens, UniProt P34998); experiment: CRF1R agonist activation (EC50 / Emax), called comparative CRF binding; type: cell-based; settings: for Emax: read-out: CRF1R Emax
T2 sequence (P34998 24-415): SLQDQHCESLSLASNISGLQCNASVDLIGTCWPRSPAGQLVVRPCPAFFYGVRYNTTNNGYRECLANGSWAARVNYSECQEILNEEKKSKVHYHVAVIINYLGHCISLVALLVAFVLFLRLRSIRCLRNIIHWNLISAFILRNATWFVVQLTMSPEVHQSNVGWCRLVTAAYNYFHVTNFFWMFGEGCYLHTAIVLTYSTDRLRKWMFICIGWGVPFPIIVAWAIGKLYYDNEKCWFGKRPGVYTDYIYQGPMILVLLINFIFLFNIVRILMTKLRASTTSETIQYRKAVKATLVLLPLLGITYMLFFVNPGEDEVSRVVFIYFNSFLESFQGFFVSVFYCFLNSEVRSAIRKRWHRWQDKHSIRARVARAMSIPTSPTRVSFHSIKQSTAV
How it was run: as §1

CC[C@H](C)[C@H](N)C(=O)N[C@H](C(=O)N[C@@H](CC(C)C)C(=O)N[C@@H](CO)C(=O)N[C@@H](CC(C)C)C(=O)N[C@@H](CC(=O)O)C(=O)N[C@H](C(=O)N1CCC[C@H]1C(=O)N[C@H](C(=O)NCC(=O)N[C@@H](CC(C)C)C(=O)N[C@@H](CC(C)C)C(=O)N[C@@H](CCC(N)=O)C(=O)N[C@H](C(=O)N[C@@H](CC(C)C)C(=O)N[C@@H](CC(C)C)C(=O)N[C@@H](CCC(=O)O)C(=O)N[C@H](C(=O)N[C@@H](CCC(=O)O)C(=O)N[C@@H](CCCCN)C(=O)N[C@@H](CCC(N)=O)C(=O)N[C@@H](CCC(=O)O)C(=O)N[C@@H](CCCCN)C(=O)N[C@@H](CCC(=O)O)C(=O)N[C@@H](CCCCN)C(=O)N[C@@H](CCC(N)=O)C(=O)N[C@@H](CCC(N)=O)C(=O)N[C@@H](C)C(=O)N[C@@H](C)C(=O)N[C@@H](CC(N)=O)C(=O)N[C@@H](CC(N)=O)C(=O)N[C@@H](CCCNC(=N)N)C(=O)N[C@@H](CC(C)C)C(=O)N[C@@H](CC(C)C)C(=O)N[C@@H](CC(C)C)C(=O)N[C@@H](CC(=O)O)C(=O)N[C@H](C(=O)N[C@H](C(N)=O)[C@@H](C)CC)[C@@H](C)O)[C@@H](C)CC)[C@@H](C)CC)[C@@H](C)CC)C(C)C)C(C)C [compound 158] (H-IVLSLDVPIGLLQILLEIEKQEKEKQQAANNRLLLDTI-NH2)
Emax (CRF2R): 89%
Emax (CRF1R): 15%

SQEPPISLDLPTYLLREVLEMTKADQLAQQAHSNRKLLDIA-NH2 [compound 106]
Emax (CRF2R): 6.1%
Emax (CRF1R): 4.8%

NDDPPISIDLPQYLLRNMIEMARIENEREQAGLNAKYLAEV-NH2 [compound 265]
Emax (CRF2R): 23.4%
Emax (CRF1R): 9.3%

CC[C@H](C)[C@H](N)C(=O)N[C@H](C(=O)N[C@@H](CC(C)C)C(=O)N[C@@H](CO)C(=O)N[C@@H](CC(C)C)C(=O)N[C@@H](CC(=O)O)C(=O)N[C@H](C(=O)N1CCC[C@H]1C(=O)N[C@H](C(=O)NCC(=O)N[C@@H](CC(C)C)C(=O)N[C@@H](CC(C)C)C(=O)N[C@@H](CCC(N)=O)C(=O)N[C@H](C(=O)N[C@@H](CC(C)C)C(=O)N[C@@H](CC(C)C)C(=O)N[C@@H](CCC(=O)O)C(=O)N[C@@H](CCC(N)=O)C(=O)N[C@@H](CCC(=O)O)C(=O)N[C@@H](CCCCN)C(=O)N[C@@H](CCC(N)=O)C(=O)N[C@@H](CCC(=O)O)C(=O)N[C@@H](C)C(=O)N[C@@H](C)C(=O)N[C@@H](CCCNC(=N)N)C(=O)N[C@@H](CCC(=O)O)C(=O)N[C@@H](CCC(N)=O)C(=O)N[C@@H](C)C(=O)N[C@H](C(=O)N[C@H](C(=O)N[C@@H](CC(N)=O)C(=O)N[C@@H](C)C(=O)N[C@@H](CCCNC(=N)N)C(=O)N[C@H](C(=O)N[C@@H](CC(C)C)C(=O)N[C@@H](C)C(=O)N[C@@H](CCCNC(=N)N)C(=O)N[C@H](C(N)=O)C(C)C)[C@@H](C)CC)[C@@H](C)O)[C@@H](C)O)[C@@H](C)CC)[C@@H](C)CC)C(C)C)C(C)C [compound 125] (H-IVLSLDVPIGLLQILLEQEKQEAAREQATTNARILARV-NH2; N-terminus assumed)
Emax (CRF2R): 99%
Emax (CRF1R): 9%

CC[C@H](C)[C@H](N)C(=O)N[C@H](C(=O)N[C@@H](CC(C)C)C(=O)N[C@@H](CO)C(=O)N[C@@H](CC(C)C)C(=O)N[C@@H](CC(=O)O)C(=O)N[C@H](C(=O)N1CCC[C@H]1C(=O)N[C@H](C(=O)NCC(=O)N[C@@H](CC(C)C)C(=O)N[C@@H](CC(C)C)C(=O)N[C@@H](CCC(N)=O)C(=O)N[C@H](C(=O)N[C@@H](CC(C)C)C(=O)N[C@@H](CC(C)C)C(=O)N[C@@H](CCC(=O)O)C(=O)N[C@@H](CCC(N)=O)C(=O)N[C@@H](CCC(=O)O)C(=O)N[C@@H](CCCCN)C(=O)N[C@@H](CCC(=O)O)C(=O)N[C@@H](CCCCN)C(=O)N[C@@H](CCCCN)C(=O)N[C@@H](CCCNC(=N)N)C(=O)N[C@@H](CCCCN)C(=O)N[C@@H](CCC(=O)O)C(=O)N[C@H](C(=O)N[C@@H](CC(N)=O)C(=O)N[C@@H](C)C(=O)N[C@@H](CCCNC(=N)N)C(=O)N[C@H](C(=O)N[C@@H](CC(C)C)C(=O)N[C@@H](C)C(=O)N[C@@H](CCCNC(=N)N)C(=O)N[C@H](C(N)=O)C(C)C)[C@@H](C)CC)[C@@H](C)O)[C@@H](C)CC)[C@@H](C)CC)C(C)C)C(C)C [compound 132] (H-IVLSLDVPIGLLQILLEQEKEKKRKETNARILARV-NH2; N-terminus assumed)
EC50 (CRF2R; read-out: CRF2R EC50): 7.53 nM
Emax (CRF2R): 88%
EC50 (CRF1R; read-out: CRF1R EC50): > 100 nM
Emax (CRF1R): 8%

CC[C@H](C)[C@H](N)C(=O)N[C@H](C(=O)N[C@@H](CC(C)C)C(=O)N[C@@H](CO)C(=O)N[C@@H](CC(C)C)C(=O)N[C@@H](CC(=O)O)C(=O)N[C@H](C(=O)N1CCC[C@H]1C(=O)N[C@H](C(=O)NCC(=O)N[C@@H](CC(C)C)C(=O)N[C@@H](CC(C)C)C(=O)N[C@@H](CCC(N)=O)C(=O)N[C@H](C(=O)N[C@@H](CC(C)C)C(=O)N[C@@H](CC(C)C)C(=O)N[C@@H](CCC(=O)O)C(=O)N[C@@H](CCC(N)=O)C(=O)N[C@@H](C)C(=O)N[C@@H](CCCNC(=N)N)C(=O)N[C@@H](C)C(=O)N[C@@H](C)C(=O)N[C@@H](C)C(=O)N[C@@H](CCCNC(=N)N)C(=O)N[C@@H](CCC(=O)O)C(=O)N[C@@H](CCC(N)=O)C(=O)N[C@@H](C)C(=O)N[C@H](C(=O)N[C@H](C(=O)N[C@@H](CC(N)=O)C(=O)N[C@@H](C)C(=O)N[C@@H](CCCNC(=N)N)C(=O)N[C@H](C(=O)N[C@@H](CC(C)C)C(=O)N[C@@H](C)C(=O)N[C@@H](CCCNC(=N)N)C(=O)N[C@H](C(N)=O)C(C)C)[C@@H](C)CC)[C@@H](C)O)[C@@H](C)O)[C@@H](C)CC)[C@@H](C)CC)C(C)C)C(C)C [compound 141] (H-IVLSLDVPIGLLQILLEQARAAAREQATTNARILARV-NH2)
Emax (CRF2R): 29%
Emax (CRF1R): 7%

CC[C@H](C)[C@H](N)C(=O)N[C@H](C(=O)N[C@@H](CC(C)C)C(=O)N[C@@H](CO)C(=O)N[C@@H](CC(C)C)C(=O)N[C@@H](CC(=O)O)C(=O)N[C@H](C(=O)N1CCC[C@H]1C(=O)N[C@H](C(=O)NCC(=O)N[C@@H](CC(C)C)C(=O)N[C@@H](CC(C)C)C(=O)N[C@@H](CCC(N)=O)C(=O)N[C@H](C(=O)N[C@@H](CC(C)C)C(=O)N[C@@H](CC(C)C)C(=O)N[C@@H](CCC(=O)O)C(=O)N[C@@H](CCC(N)=O)C(=O)N[C@H](C(=O)N[C@@H](CCCCN)C(=O)N[C@@H](C)C(=O)N[C@@H](CC(=O)O)C(=O)N[C@@H](CCC(N)=O)C(=O)N[C@@H](CC(C)C)C(=O)N[C@@H](C)C(=O)N[C@@H](CCC(N)=O)C(=O)N[C@@H](CCC(N)=O)C(=O)N[C@@H](C)C(=O)N[C@@H](Cc1c[nH]cn1)C(=O)N[C@@H](CO)C(=O)N[C@@H](CC(N)=O)C(=O)N[C@@H](CCCNC(=N)N)C(=O)N[C@@H](CCCCN)C(=O)N[C@@H](CC(C)C)C(=O)N[C@@H](CC(C)C)C(=O)N[C@@H](CC(=O)O)C(=O)N[C@H](C(=O)N[C@@H](C)C(N)=O)[C@@H](C)CC)[C@@H](C)O)[C@@H](C)CC)[C@@H](C)CC)C(C)C)C(C)C [compound 159] (H-IVLSLDVPIGLLQILLEQTKADQLAQQAHSNRKLLDIA-NH2; N-terminus assumed)
Emax (CRF2R): 62%
Emax (CRF1R): 9%

CC[C@H](C)[C@H](N)C(=O)N[C@H](C(=O)N[C@@H](CC(C)C)C(=O)N[C@@H](CO)C(=O)N[C@@H](CC(C)C)C(=O)N[C@@H](CC(=O)O)C(=O)N[C@H](C(=O)N1CCC[C@H]1C(=O)N[C@H](C(=O)NCC(=O)N[C@@H](CC(C)C)C(=O)N[C@@H](CC(C)C)C(=O)N[C@@H](CCC(N)=O)C(=O)N[C@H](C(=O)N[C@@H](CC(C)C)C(=O)N[C@@H](CC(C)C)C(=O)N[C@@H](CCC(=O)O)C(=O)N[C@@H](CCSC)C(=O)N[C@H](C(=O)N[C@@H](CCCCN)C(=O)N[C@@H](C)C(=O)N[C@@H](CC(=O)O)C(=O)N[C@@H](CCC(N)=O)C(=O)N[C@@H](CC(C)C)C(=O)N[C@@H](C)C(=O)N[C@@H](CCC(N)=O)C(=O)N[C@@H](CCC(N)=O)C(=O)N[C@@H](C)C(=O)N[C@@H](Cc1c[nH]cn1)C(=O)N[C@@H](CO)C(=O)N[C@@H](CC(N)=O)C(=O)N[C@@H](CCCNC(=N)N)C(=O)N[C@@H](CCCCN)C(=O)N[C@@H](CC(C)C)C(=O)N[C@@H](CC(C)C)C(=O)N[C@@H](CC(=O)O)C(=O)N[C@H](C(=O)N[C@@H](C)C(N)=O)[C@@H](C)CC)[C@@H](C)O)[C@@H](C)CC)[C@@H](C)CC)C(C)C)C(C)C [compound 155] (H-IVLSLDVPIGLLQILLEMTKADQLAQQAHSNRKLLDIA-NH2; N-terminus assumed)
Emax (CRF2R): 94%
Emax (CRF1R): 16%
